“And” between values parts separate entries of the source, which are not always exact repeats. Identical values can stand only once.
System: THP-1 viability, CellTiter-Glo luminescence, 72 h
Test: human monocytic cell viability reduction – S. typhimurium screen hits, cytotoxicity control for Salmonella PhoP regulon inhibitors, dose response (AID 2253)

Compound | EC50
COc1cccc(/C=N/NC(=O)c2ccc(-c3ccccc3)cc2)c1O | 1.08 µM
Nc1c(Cl)ncnc1N/N=C/c1ccccn1 | 0.47 µM
CCCCCc1ccc(OCCC[n+]2ccccc2)c(CCCCC)c1 | 2.78 µM
COc1cccc(/C=N/n2c(C)nc3ccccc3c2=O)c1O | 27.7 µM
CC(C(=O)Nc1cc([N+](=O)[O-])ccc1Cl)N1CCN(c2ccccc2O)CC1 (centres undefined) | 25.6 µM
CN(C)C=NC(=O)c1[nH]c2ccc(Cl)cc2c1-c1ccccc1 | 13.6 µM
Cn1c(-c2ccc3c(c2)OCO3)cnc1NCc1cccc(Cl)c1 | 15.5 µM
COc1cccc(-c2nnc3sc(-c4ccc(C)cc4)nn23)c1 | 44.3 µM
O=[N+]([O-])c1cc(F)c2cccnc2c1O | 30.5 µM
C=COC(=O)CSc1snc(SCC(=O)OC)c1C#N | 32.3 µM
Cc1ccc2cccnc2c1NC(=S)NC(=O)c1ccccc1 | 25.2 µM
c1csc(C2Nc3ccccc3-c3nc4ccccc4n32)c1 (centres undefined) | 33.7 µM
O=c1[nH]c(NNC(=S)NCc2ccccc2)nc2c1C1(CCCCC1)Cc1ccccc1-2 | 45.1 µM
CCCc1cnc(NCCNCC(O)COc2ccc(Cl)c(Cl)c2)nc1 (centres undefined) | 11.8 µM
Cc1cc(C(=O)N/N=C/c2cc(Br)cc([N+](=O)[O-])c2O)c2ccccc2n1 | 23 µM
N#Cc1c(NC(=O)c2cnccn2)sc2c1CCCC2 | 9.25 µM
CCn1c(SCc2nc3scc(-c4ccccc4)c3c(=O)[nH]2)nnc1-c1cccs1 | 46.6 µM
CCN(CC)S(=O)(=O)c1cccc(C(=O)N/N=C/c2ccc(O)c(O)c2O)c1 | 6.68 µM
CCCCCCCCCn1c2c(c(=N)c3c1CCC3)CCCC2 | 0.37 µM
CCCCCCCSc1cc(OC)c(CCN(C)C)cc1OC | 14.1 µM
OCc1ccc(O)c2ncccc12 | 3.26 µM
O=C(c1ccc(CSc2nc3ccncc3[nH]2)cc1)N1CCN(c2cccc(Cl)c2)CC1 | 15.3 µM
CC1=NN(c2ccc(Cl)cc2)C(=O)C1C(c1cccc(O)c1)c1c(C)[nH]n(-c2ccc(Cl)cc2)c1=O (centres undefined) | 35.5 µM
COc1cccc(Nc2nc(NCC3CCCO3)c3ccccc3n2)c1 (centres undefined) | 2.88 µM

Compound | EC50
CCCC(=O)NC(c1ccc(C)cc1)c1ccc2cccnc2c1O (centres undefined) | 0.46 µM
Cc1nc2c(C(=O)NCCC(C)C)c[nH]n2c(=O)c1Cc1ccccc1F | 30.7 µM
O=c1[nH]cc(F)c(=O)[nH]1 | 4.25 µM
CC[C@@H](C)[C@H](CNC)NC[C@@H](Cc1cccc2ccccc12)NCCc1cccc(C(F)(F)F)c1 | 7 µM
CC(C(=O)c1ccc(-c2ccccc2)cc1)[n+]1cccc(NC(=O)c2ccccc2)c1 (centres undefined) | 19.6 µM
O=C1c2ccccc2NC(c2ccc(-c3cccc([N+](=O)[O-])c3)o2)N1O (centres undefined) | 6.61 µM
Oc1c(CN2CCc3ccccc3C2)cc(Cl)c2cccnc12 | 8.71 µM
O=C(NC(c1ccc(Cl)cc1)c1c(O)ccc2ccccc12)c1ccccc1 (centres undefined) | 8.91 µM
CCCC(=O)NC(c1ccc(Cl)cc1)c1ccc2cccnc2c1O (centres undefined) | 0.38 µM
Cc1cccc(C)c1NC(=O)CCCSc1nnc(-c2ccc(Cl)cc2)n1-c1ccccc1 | 27.6 µM
c1ccc(CNc2c3c(nc4ccccc24)CCC3)cc1 | 11.3 µM
Cc1ccc(C(C)C)c(OCC(=O)N2CCN(Cc3nc4cc([N+](=O)[O-])ccc4n3C)CC2)c1 | 25.9 µM
Cc1cc(/C=N/NC(N)=S)c(C)n1-c1ccc(Cl)c(Cl)c1 | 19.8 µM
c1ccc2c(CCNCc3ccc4c(c3)OCO4)c[nH]c2c1 | 24.2 µM
O=[N+]([O-])/C=C/c1cc2ccccc2[nH]1 | 31.6 µM
Nc1ccc(Nc2ccccc2)cc1 | 11.6 µM
Oc1ccc(/C=N/NC(=S)Nc2cccnc2)c(O)c1 | 3.21 µM
c1ccc2cc(CSCc3nc4ccccc4[nH]3)ccc2c1 | 42.6 µM
CN1CCc2c(sc(NC(=O)c3ccc([N+](=O)[O-])o3)c2C(N)=O)C1 | 0.61 µM
OC(c1cc(-c2ccc(C(F)(F)F)cc2)nc(C(F)(F)F)c1)C1CCCCN1 (centres undefined) | 6.15 µM
NC1=NC[C@@H](Cc2ccc(O)cc2)N1CCCCC1CCCCC1 | 5.45 µM
Cc1cc(C)cc(OC(=O)CS(=O)c2ccc(C(F)(F)F)cc2[N+](=O)[O-])c1 (centres undefined) | 5.98 µM
Clc1c(OCCCn2ccnc2)ccc2ccccc12 | 35.2 µM
c1ccc2c(c1)CCN(c1ncnc3c1[nH]c1ccccc13)C2 | 10.7 µM

Compound | EC50
O=C(N/N=C/c1ccc([N+](=O)[O-])o1)c1ccc(O)cc1 | 12 µM
Oc1ccc(C=Nc2ccc3ncccc3c2)c(O)c1 | 14.2 µM
NC1=NC[C@H](c2ccccc2)N1CCCCC1CCCCC1 | 5.06 µM
Cc1ccc(Nc2cc(C)c3c(O)cccc3n2)cc1C | 15.2 µM
OC1(c2cccc(C(F)(F)F)c2)CCN(c2ncnc3c2[nH]c2ccccc23)CC1 | 17.6 µM
CN1C(=O)/C(=C/c2cccn2-c2ccc3ccccc3c2)C(=O)NC1=S | 16.6 µM
Cc1ccc(Nc2nc(N)c3ccccc3n2)cc1Cl | 16.3 µM
CN(Cc1ccccc1)CC(O)COc1ccc(CNCc2ccc(Cl)s2)cc1 (centres undefined) | 33.4 µM
Oc1ccc(/C=N/Nc2ncc(Br)cn2)c(O)c1 | 3.1 µM
C/C(=N/Nc1nc(-c2ccccc2)cc(-c2ccc(F)cc2)n1)c1cccc(N)c1 | 18.1 µM
CCCCCCCCCCOC(=O)Cn1c(COc2ccc(Cl)cc2)[n+](C)c2ccccc21 | 2.05 µM
COc1ccccc1CNCC(O)Cn1c2ccccc2c2ccccc21 (centres undefined) | 8.21 µM
c1ccc(-c2nnc(-c3ccccn3)nc2NC2CCCCC2)cc1 | 1.37 µM
O=C(Nc1ccccc1)Nc1ncc([N+](=O)[O-])s1 | 15.8 µM
N=C(N)SCc1cn(-c2ccccc2)nc1-c1ccc(Br)cc1 | 4.83 µM
COc1ccc(Nc2nc(-c3c[nH]c4ccccc34)cs2)cc1 | 15.6 µM
NC(N)=N/N=C/c1ccc(OCc2ccc(Cl)cc2)cc1 | 2.91 µM
COc1c(N2CCN(C(=S)NCc3ccccc3)C(C)C2)c(F)cc2c(=O)c(C(=O)O)cn(C3CC3)c12 (centres undefined) | 15.4 µM
CCc1ccc(S(=O)(=O)/N=C2/C=C(Sc3ncn[nH]3)C(=O)c3ccccc32)cc1 | 4.28 µM
Cc1ccc(Nc2cc(C)c3ccc(O)cc3n2)cc1C | 17 µM
C/C(=N\NC(=O)c1cc2ccccc2cc1O)c1ccccn1 | 0.76 µM
Cn1c(NCc2cc(Br)ccc2O)nc2ccccc21 | 37.5 µM
COC(=O)c1ccc(Nc2cc(C)nc3ccccc23)cc1 | 6.32 µM
O=c1c2c(-c3ccccc3)csc2nc2c3ccccc3c(NCCN3CCOCC3)nn12 | 3.11 µM

Compound | EC50
Oc1c(C(Nc2nc3ccccc3s2)c2ccco2)ccc2cccnc12 (centres undefined) | 0.65 µM
Clc1ccc(OCCCNCc2ccccc2)c(Br)c1 | 11.5 µM
O=C(Nc1cccc(Cl)c1)C1C2CCC3C(CCC21)C3(Cl)Cl (centres undefined) | 27.2 µM
COc1cnc(-c2ccccn2)[nH]c1=O | 25.6 µM
Cc1ccc(C(c2cc(Cl)c3cccnc3c2O)N2CCN(C)CC2)cc1 (centres undefined) | 1.89 µM
O=C1/C(=C/c2ccccc2)NC(=S)N1C(c1ccccc1)c1ccccc1 | 4.48 µM
Cc1cc(C)c2nc(NNC(=O)c3ccc(S(=O)(=O)N4CCCCC4)cc3)sc2c1 | 4.69 µM
O=[N+]([O-])c1cc(O)c2ncccc2c1 | 6.48 µM
NC1=NC(=Nc2cccc(Cl)c2)c2ccccc21 | 32.4 µM
O=C1C(Nc2ccccc2)=C/C(=N/S(=O)(=O)c2cccs2)c2ccccc21 | 1.5 µM
Nc1cc(Cl)c2nonc2c1[N+](=O)[O-] | 2.24 µM
COc1ccc(Nc2nnc(SCc3cn4c(C)cccc4n3)s2)cc1 | 9.34 µM
C/C(=N\NC(=S)Nc1ccc(F)cc1)c1ccc2c(c1)OCCO2 | 10.5 µM
Clc1cc(Br)ccc1OCCCNCc1ccccc1 | 22.8 µM
Clc1ccc(Cl)c(OCCCCNCc2ccccc2)c1 | 27.4 µM
O=C(CN1CCCc2ccccc21)N/N=C/c1c(O)ccc2ccccc12 | 3.11 µM
CCCCCCCCn1c2c(c(=N)c3ccccc31)CCC2 | 0.98 µM
CCOc1ccc2c(c1)nc(SCC(=O)c1ccc(Br)s1)n2C | 47.3 µM
CN(c1cccc(Cl)c1)S(=O)(=O)c1cccc(C(=O)Nc2nc3ccccc3[nH]2)c1 | 13.3 µM
CCCCCCCCCCOC(=O)Cn1c(COc2ccc(OC)cc2)[n+](C)c2ccccc21 | 3.17 µM and 2.22 µM
CN(CCO)c1cc(Sc2nc3ccccc3s2)c2nonc2c1[N+](=O)[O-] | 15.8 µM
Cc1ccc2[nH]c3c(NCc4ccco4)ncnc3c2c1 | 34.7 µM
CC(C(=O)NC1CCS(=O)(=O)C1)N1C(=O)/C(=C/c2ccc(Cl)cc2)SC1=S (centres undefined) | 48.9 µM
CCCc1nc2c(=O)n(C)c(=O)nc-2n(C)n1 | 2.36 µM

Compound | EC50
CCCc1cc(-c2nc(N)ncc2-c2ccc3c(c2)OCCCO3)c(O)cc1OC | 19.9 µM
CCCCCC(CC(=O)NO)C(=O)NC(C(=O)N1CCCC1CO)C(C)C (centres undefined) | 36.2 µM
C=CCNc1ncnc2c1[nH]c1ccc(C)cc12 | 25.8 µM
Clc1ccc(-c2c[n+](Cc3ccc(Cl)cc3Cl)c3n2CCCCC3)cc1 | 3.61 µM
C[C@H]1O[C@@H](n2cc(F)c(=O)[nH]c2=O)[C@H](O)[C@@H]1O | 43.8 µM
O=C(C[n+]1cc(-c2ccccc2)n2c1CCCCC2)c1ccc(Cl)cc1 | 28.9 µM
Nc1ccc2c(c1)C(=O)C(=O)c1ccccc1-2 | 2.23 µM
CCc1ccc(C(c2c(C)nn(-c3ccccc3)c2N)c2c(C)nn(-c3ccccc3)c2N)cc1 | 46.1 µM
CCCOc1ccc(Br)cc1CSC(=N)N | 5.31 µM
Cc1ccc(/C=C2\SC(=S)N(Cc3ccccc3)C2=O)o1 | 24.4 µM
Cc1cccc(NC(=S)NC(NC(=O)c2ccco2)C(Cl)(Cl)Cl)c1 (centres undefined) | 21.7 µM
COc1ccc(Nc2cc(C)nc(NCc3ccccc3)n2)cc1 | 10.1 µM
Cc1[nH]c2ccccc2c1/C=N/Nc1ccc(F)cc1F | 48.5 µM
O=S(=O)(Nc1cc(Sc2ncn[nH]2)c(O)c2ccccc12)c1ccccc1 | 5.35 µM
CC(=O)NC(c1ccc(C)cc1)c1cc([N+](=O)[O-])c2cccnc2c1O (centres undefined) | 6.41 µM
Oc1c(CN2CCOCC2)cc(COCc2ccccc2)c2cccnc12 | 3.1 µM
Cc1ccc(-c2csc(NC(=O)C[n+]3cc(-c4ccc(C)cc4)n4c3CCC4)n2)cc1 | 8.54 µM
O=c1c(Cl)c(Cl)cnn1Cc1ccccc1Cl | 2.95 µM
Cc1ccc(Nc2nc(Cl)nc(N(C)C#N)n2)cc1 | 13.6 µM
C[CH2][Hg][S]c1ccccc1C(=O)O | 0.71 µM
Cc1c(C)n(Cc2ccccc2)c2ncnc(NN)c12 | 23.4 µM
O=C(N/N=C/c1cc(Cl)ccc1O)c1ccncc1 | 5.12 µM
O=C(N/N=C/C1C(c2ccccc2)C1(Cl)Cl)c1cccc(Cl)c1 (centres undefined) | 44 µM
